According to patent US20080255192A1, “Methods and Compositions for Selectin Inhibition” (Wyeth, priority 2007, published 2008):

Molecular target: T1, P-selectin/PSGL-1 interaction (Homo sapiens, UniProt P16109)
T1 construct: comprised of the lectin and epidermal growth factor-like (EGF) domains expressed in CHO cells; made in house; host or cells: CHO cells (P-LE)
T1 sequence (P16109 42-198): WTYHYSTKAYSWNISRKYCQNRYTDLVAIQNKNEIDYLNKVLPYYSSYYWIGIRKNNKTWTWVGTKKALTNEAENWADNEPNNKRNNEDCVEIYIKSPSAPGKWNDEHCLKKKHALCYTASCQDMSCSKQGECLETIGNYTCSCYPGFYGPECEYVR
Experiment: Biacore P-Selectin/PSGL-1 Inhibition Assay (surface plasmon resonance)
Format: binding
Settings: 250 uM test compound, 500 nM P.LE, immobilized PSGL-1 19ek, 10% DMSO, pH 7.4
Summary of the method: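 Biotinylated monomeric human PSGL-1 "19ek" on streptavidin chip (600–700 RU); compounds preincubated 1 h, then mixed with 500 nM P-LE (lectin-EGF, CHO-expressed) at 250 or 500 μM compound, 10% DMSO, HEPES buffer with 1 mM CaCl2/MgCl2, pH 7.4. SPR at 25 °C; percent binding inhibition from double-referenced signals.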

Row | Compound | inhibition at 250 µM [%]
1 | O=C(O)c1c(O)c(C2(c3ccc(C(F)(F)F)cc3)CC2)nc2ccc(OC(F)(F)F)cc12 [Compound 90, 3-hydroxy-6-(trifluoromethoxy)-2-(1-(4-(trifluoromethyl)phenyl)cyclopropyl)quinoline-4-carboxylic acid] | 47
2 | O=C(O)c1c(O)c(C2(c3ccc(C(F)(F)F)cc3)CC2)nc2c(-c3ccccc3)cccc12 [Compound 92, 3-hydroxy-8-phenyl-2-(1-(4-(trifluoromethyl)phenyl)cyclopropyl)quinoline-4-carboxylic acid] | ≤ 10
3 | O=C(O)c1c(O)c(C2(c3ccc(Cl)cc3)CC2)nc2c(C(F)(F)F)cc(Cl)cc12 [Compound 95, 6-chloro-2-(1-(4-chlorophenyl)cyclopropyl)-3-hydroxy-8-(trifluoromethyl)quinoline-4-carboxylic acid] | ≤ 10
4 | Cc1cc(C(F)(F)F)cc2c(C(=O)O)c(O)c(C3(c4ccc(Cl)cc4)CC3)nc12 [Compound 97, 2-(1-(4-chlorophenyl)cyclopropyl)-3-hydroxy-8-methyl-6-(trifluoromethyl)quinoline-4-carboxylic acid] | 40
5 | CCc1cc(C(F)(F)F)cc2c(C(=O)O)c(O)c(C3(c4ccc(Cl)cc4)CC3)nc12 [Compound 99, 2-(1-(4-chlorophenyl)cyclopropyl)-8-ethyl-3-hydroxy-6-(trifluoromethyl)quinoline-4-carboxylic acid] | ≤ 10
6 | O=C(O)c1c(O)c(C2(c3ccc(Cl)cc3)CC2)nc2c(-c3ccccc3)cc(C(F)(F)F)cc12 [Compound 100, 2-(1-(4-chlorophenyl)cyclopropyl)-3-hydroxy-8-phenyl-6-(trifluoromethyl)quinoline-4-carboxylic acid] | ≤ 10
7 | O=C(O)c1c(O)c(C2(c3ccc(Cl)cc3)CC2)nc2c(C(F)(F)F)cc(Br)cc12 [Compound 103, 6-bromo-2-(1-(4-chlorophenyl)cyclopropyl)-3-hydroxy-8-(trifluoromethyl)quinoline-4-carboxylic acid] | ≤ 10
8 | CCc1cc(C(F)(F)F)c2nc(C3(c4ccccc4)CC3)c(O)c(C(=O)O)c2c1 [Compound 104, 6-ethyl-3-hydroxy-2-(1-phenylcyclopropyl)-8-(trifluoromethyl)quinoline-4-carboxylic acid] | 40
9 | O=C(O)c1c(O)c(C2(c3ccc(Cl)cc3)CC2)nc2c(C(F)(F)F)cc(C(F)(F)F)cc12 [Compound 105, 3-hydroxy-2-(1-(4-chlorophenyl)cyclopropyl)-6,8-bis(trifluoromethyl)quinoline-4-carboxylic acid] | ≤ 10
10 | O=C(O)c1c(O)c(C2(c3ccccc3)CC2)nc2c(C(F)(F)F)cc(C(F)(F)F)cc12 [Compound 106] | 41
11 | O=C(O)c1c(O)c(C2(c3ccccc3)CC2)nc2c(C3CC3)cccc12 [Compound 110, 8-cyclopropyl-3-hydroxy-2-(1-phenyl-cyclopropyl)-quinoline-4-carboxylic acid] | 13
12 | O=C(O)c1c(O)c(CC2(c3ccccc3)CC2)nc2c(C(F)(F)F)cccc12 [Compound 111, 3-hydroxy-2-(1-phenyl-cyclopropylmethyl)-8-trifluoromethyl-quinoline-4-carboxylic acid] | 46
13 | O=C(O)c1c(O)c(C2(Cc3ccccc3)CC2)nc2c(C(F)(F)F)cccc12 [Compound 112, 2-(1-benzyl-cyclopropyl)-3-hydroxy-8-trifluoromethyl-quinoline-4-carboxylic acid] | 43
14 | CC(C)(c1ccccc1)c1nc2c3c(ccc2c(C(=O)O)c1O)CCCC3 [Compound 114, 3-hydroxy-2-(2-phenylpropan-2-yl)-7,8,9,10-tetrahydrobenzo[h]quinoline-4-carboxylic acid] | 69
15 | Cc1ccc2c(C(=O)O)c(O)c(C(C)(C)c3ccccc3)nc2c1C [Compound 115, 3-hydroxy-7,8-dimethyl-2-(2-phenylpropan-2-yl)quinoline-4-carboxylic acid] | 60
16 | CC(C)c1cccc2c(C(=O)O)c(O)c(C(C)(C)c3ccccc3)nc12 [Compound 116, 3-hydroxy-8-isopropyl-2-(2-phenylpropan-2-yl)quinoline-4-carboxylic acid] | 68
17 | CC(C)(c1ccccc1)c1nc2c(C(F)(F)F)cccc2c(C(=O)O)c1O [Compound 117, 3-hydroxy-2-(2-phenylpropan-2-yl)-8-(trifluoromethyl)quinoline-4-carboxylic acid] | 55
18 | CC(C)(c1ccc(Cl)cc1)c1nc2c(C(F)(F)F)cccc2c(C(=O)O)c1O [Compound 119, 2-(2-(4-Chlorophenyl)propan-2-yl)-3-hydroxy-8-(trifluoromethyl)quinoline-4-carboxylic acid] | ≤ 10
19 | Cc1ccc2c(C(=O)O)c(O)c(C(C)(C)c3ccc(Cl)cc3)nc2c1C [Compound 121, 2-(2-(4-Chlorophenyl)propan-2-yl)-3-hydroxy-7,8-dimethylquinoline-4-carboxylic acid] | 56
20 | CC(C)(c1ccc(Cl)cc1)c1nc2c(C(O)(C(F)(F)F)C(F)(F)F)cccc2c(C(=O)O)c1O [Compound 122, 2-(2-(4-chlorophenyl)propan-2-yl)-8-(1,1,1,3,3,3-hexafluoro-2-hydroxypropan-2-yl)-3-hydroxyquinoline-4-carboxylic acid] | ≤ 10
21 | CC(c1ccccc1)c1nc2c(C(F)(F)F)cccc2c(C(=O)O)c1O (stereo not drawn) [Compound 123, 3-hydroxy-2-(1-phenylethyl)-8-(trifluoromethyl)quinoline-4-carboxylic acid] | 49

Second part, the compound after the results:

Row | inhibition at 250 µM [%] | Compound
22 | 34 | CC(C)c1cccc2c(C(=O)O)c(O)c(C3(c4ccc(C(F)(F)F)cc4)CC3)nc12 [Compound 88, 3-hydroxy-8-isopropyl-2-(1-(4-(trifluoromethyl)phenyl)cyclopropyl)quinoline-4-carboxylic acid]
23 | 10 | CCc1ccc2c(C(=O)O)c(O)c(C3(c4ccc(C(F)(F)F)cc4)CC3)nc2c1 [Compound 89, 7-ethyl-3-hydroxy-2-(1-(4-(trifluoromethyl)phenyl)cyclopropyl)quinoline-4-carboxylic acid]
24 | ≤ 10 | O=C(O)c1c(O)c(C2(c3ccc(C(F)(F)F)cc3)CC2)nc2c(-c3ccsc3)cccc12 [Compound 91, 3-hydroxy-8-(thiophen-3-yl)-2-(1-(4-(trifluoromethyl)phenyl)cyclopropyl)quinoline-4-carboxylic acid]
25 | 33 | O=C(O)c1c(O)c(C2(c3ccc(C(F)(F)F)cc3)CC2)nc2c3c(ccc12)CCCC3 [Compound 93, 3-hydroxy-2-(1-(4-(trifluoromethyl)phenyl)cyclopropyl)-7,8,9,10-tetrahydrobenzo[h]quinoline-4-carboxylic acid]
26 | 65 | Cc1cc(C(F)(F)F)c2nc(C3(c4ccc(Cl)cc4)CC3)c(O)c(C(=O)O)c2c1 [Compound 94, 2-(1-(4-chlorophenyl)cyclopropyl)-3-hydroxy-6-methyl-8-(trifluoromethyl)quinoline-4-carboxylic acid]
27 | ≤ 10 | O=C(O)c1c(O)c(C2(c3ccc(Cl)cc3)CC2)nc2c(C(F)(F)F)cc(-c3ccccc3)cc12 [Compound 96, 2-(1-(4-chlorophenyl)cyclopropyl)-3-hydroxy-6-phenyl-8-(trifluoromethyl)quinoline-4-carboxylic acid]
28 | ≤ 10 | CCc1cc(C(F)(F)F)c2nc(C3(c4ccc(Cl)cc4)CC3)c(O)c(C(=O)O)c2c1 [Compound 98]
29 | 40 | Cc1cc(C(F)(F)F)c2nc(C3(c4ccccc4)CC3)c(O)c(C(=O)O)c2c1 [Compound 101, 3-hydroxy-6-methyl-2-(1-phenylcyclopropyl)-8-(trifluoromethyl)quinoline-4-carboxylic acid]
30 | ≤ 10 | O=C(O)c1c(O)c(C2(c3ccccc3)CC2)nc2c(C(F)(F)F)cc(-c3ccccc3)cc12 [Compound 102, 3-hydroxy-6-phenyl-2-(1-Phenylcyclopropyl)-8-(trifluoromethyl)quinoline-4-carboxylic acid]
31 | 41 | O=C(O)c1c(O)c(C2(c3ccccc3)CC2)nc2c(C(F)(F)F)cc(Br)cc12 [Compound 107, 6-bromo-3-hydroxy-2-(1-phenylcyclopropyl)-8-(trifluoromethyl)quinoline-4-carboxylic acid]
32 | 12 | O=C(O)c1c(O)c(C2(c3ccc(Cl)cc3)CC2)nc2c(C(=O)O)cccc12 [Compound 108, 2-(1-(4-chlorophenyl)cyclopropyl)-3-hydroxyquinoline-4,8-dicarboxylic acid]
33 | 57 | O=C(O)c1c(O)c(C2(c3ccc(Cl)cc3)CC2)nc2c(C3CC3)cccc12 [Compound 109, 2-[1-(4-chloro-phenyl)-cyclopropyl]-8-cyclopropyl-3-hydroxy-quinoline-4-carboxylic acid]
34 | 24 | Cc1ccc(C2(c3nc4c(C)c(C)ccc4c(C(=O)O)c3O)CC2)cc1 [Compound 113, 3-hydroxy-7,8-dimethyl-2-(1-p-tolyl-cyclopropyl)-quinoline-4-carboxylic acid]
35 | ≤ 10 | CC(C)c1cccc2c(C(=O)O)c(O)c(C(C)(C)c3ccc(Cl)cc3)nc12 [Compound 118, 2-(2-(4-Chlorophenyl)propan-2-yl)-3-hydroxy-8-isopropylquinoline-4-carboxylic acid]
36 | ≤ 10 | CC(C)(c1ccc(Cl)cc1)c1nc2c3c(ccc2c(C(=O)O)c1O)CCCC3 [Compound 120, 2-(2-(4-Chlorophenyl)propan-2-yl)-3-hydroxy-7,8,9,10-tetrahydrobenzo[h]quinoline-4-carboxylic acid]
